In patent publication US9453026B2, “ACC inhibitors and uses thereof” (Gilead Apollo, Inc., priority 2011, dated 2016):
In brackets after ≈: the same amount, converted by molar mass. Read-outs that look alike come from different tables or passages of the source.

Tests used:
ACC1 [1] = details: ACC1 isolated from rat, mouse, monkey and human; cited from earlier work
ACC2 [2] = details: ACC2 isolated from rat, mouse, monkey and human; cited from earlier work
ACC1 [3] = molecular target: ACC1 (Homo sapiens, UniProt Q13085); test: In vitro ACC1 inhibition assay (ADP-Glo); format: biochemical; details: read-out: ACC1
Method in brief: (§1)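 Enzyme (human ACC1 or ACC2) and compound, serially diluted 1:3 over 11 points from a 600 uM DMSO stock, were preincubated 15 min before substrate addition.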

ACC2 [4] = molecular target: ACC2 (Homo sapiens, UniProt O00763); test: In vitro ACC2 inhibition assay (ADP-Glo); format: biochemical; details: read-out: ACC2
ACC2 (Homo sapiens, UniProt O00763), sequence (O00763 whole entry, species assumed): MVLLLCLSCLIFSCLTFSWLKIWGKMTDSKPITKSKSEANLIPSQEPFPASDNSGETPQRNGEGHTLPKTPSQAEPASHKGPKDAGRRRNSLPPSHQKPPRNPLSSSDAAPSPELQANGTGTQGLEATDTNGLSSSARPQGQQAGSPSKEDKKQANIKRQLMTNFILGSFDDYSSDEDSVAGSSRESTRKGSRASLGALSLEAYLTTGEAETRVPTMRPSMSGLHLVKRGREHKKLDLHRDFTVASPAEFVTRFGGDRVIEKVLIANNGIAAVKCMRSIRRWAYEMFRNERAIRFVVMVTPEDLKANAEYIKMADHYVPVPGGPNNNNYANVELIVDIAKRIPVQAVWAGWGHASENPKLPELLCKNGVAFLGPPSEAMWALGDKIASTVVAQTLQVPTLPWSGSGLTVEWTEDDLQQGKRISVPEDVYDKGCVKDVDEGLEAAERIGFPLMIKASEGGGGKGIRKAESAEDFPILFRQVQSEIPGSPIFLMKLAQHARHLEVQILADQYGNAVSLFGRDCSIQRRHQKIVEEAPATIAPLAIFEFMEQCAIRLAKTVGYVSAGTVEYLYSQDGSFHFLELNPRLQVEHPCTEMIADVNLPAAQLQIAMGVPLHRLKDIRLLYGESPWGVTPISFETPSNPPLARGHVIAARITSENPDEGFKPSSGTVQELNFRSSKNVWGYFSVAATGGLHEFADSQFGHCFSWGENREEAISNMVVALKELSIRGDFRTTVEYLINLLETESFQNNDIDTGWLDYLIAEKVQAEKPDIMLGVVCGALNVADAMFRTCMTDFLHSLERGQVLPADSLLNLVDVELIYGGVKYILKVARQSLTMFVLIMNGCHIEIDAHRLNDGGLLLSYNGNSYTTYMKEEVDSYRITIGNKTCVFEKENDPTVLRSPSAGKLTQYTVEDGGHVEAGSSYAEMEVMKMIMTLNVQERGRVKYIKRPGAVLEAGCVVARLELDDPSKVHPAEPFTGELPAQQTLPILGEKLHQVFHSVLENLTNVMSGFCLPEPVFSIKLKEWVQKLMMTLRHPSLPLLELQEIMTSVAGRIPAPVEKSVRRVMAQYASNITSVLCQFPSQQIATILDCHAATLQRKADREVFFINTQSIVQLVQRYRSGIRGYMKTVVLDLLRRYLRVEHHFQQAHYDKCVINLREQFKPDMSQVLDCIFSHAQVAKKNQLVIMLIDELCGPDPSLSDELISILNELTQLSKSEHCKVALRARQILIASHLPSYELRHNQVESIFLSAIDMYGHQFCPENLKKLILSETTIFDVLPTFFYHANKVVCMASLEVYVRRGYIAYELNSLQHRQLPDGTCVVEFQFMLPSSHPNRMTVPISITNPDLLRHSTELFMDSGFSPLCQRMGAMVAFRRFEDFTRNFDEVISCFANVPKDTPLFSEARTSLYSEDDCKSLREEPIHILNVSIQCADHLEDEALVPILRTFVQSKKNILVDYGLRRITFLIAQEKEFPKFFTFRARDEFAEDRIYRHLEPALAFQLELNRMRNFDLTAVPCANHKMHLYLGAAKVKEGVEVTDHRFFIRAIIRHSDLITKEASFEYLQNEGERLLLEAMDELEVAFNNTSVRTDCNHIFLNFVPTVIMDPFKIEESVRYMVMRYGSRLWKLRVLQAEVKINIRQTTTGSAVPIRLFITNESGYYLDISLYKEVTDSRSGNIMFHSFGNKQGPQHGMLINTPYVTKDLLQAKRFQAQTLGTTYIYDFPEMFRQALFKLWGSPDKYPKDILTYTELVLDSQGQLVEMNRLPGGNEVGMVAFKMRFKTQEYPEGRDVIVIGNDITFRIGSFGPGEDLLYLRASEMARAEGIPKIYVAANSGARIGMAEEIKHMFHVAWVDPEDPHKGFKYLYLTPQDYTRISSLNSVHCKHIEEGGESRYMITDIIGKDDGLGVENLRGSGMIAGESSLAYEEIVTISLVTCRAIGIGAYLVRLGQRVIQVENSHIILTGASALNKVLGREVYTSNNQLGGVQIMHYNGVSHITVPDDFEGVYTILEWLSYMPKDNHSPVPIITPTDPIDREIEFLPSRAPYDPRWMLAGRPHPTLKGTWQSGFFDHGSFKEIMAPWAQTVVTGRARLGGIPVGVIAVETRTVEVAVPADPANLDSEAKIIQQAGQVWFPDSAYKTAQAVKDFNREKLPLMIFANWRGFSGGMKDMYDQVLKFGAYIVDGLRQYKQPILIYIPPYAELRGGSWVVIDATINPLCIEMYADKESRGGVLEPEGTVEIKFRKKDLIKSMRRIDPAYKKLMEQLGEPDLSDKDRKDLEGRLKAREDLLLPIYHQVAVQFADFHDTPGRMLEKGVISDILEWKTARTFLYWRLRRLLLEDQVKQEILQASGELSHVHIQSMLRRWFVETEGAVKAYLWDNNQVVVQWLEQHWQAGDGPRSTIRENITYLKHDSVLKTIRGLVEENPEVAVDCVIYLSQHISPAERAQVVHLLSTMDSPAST
Method in brief: as §1

target protein (ACC) = test: Thermal Shift Assay (TSA); format: binding; details: FIG. 3
From the text: 103, 43, 15835-15840, the entirety of which is incorporated herein by reference.

HepG2 cells = test: [14C] Acetate Incorporation HepG2 Cellular Assay; format: cell-based; details: Homo sapiens; HepG2 cells, FIG. 4; read-out: IC50, incorporation of isotopically labeled acetate into fatty acids
Experimental: Compounds of the present invention were evaluated in a [^14C] Acetate Incorporation Assay. An exemplary procedure for the assay, which measures the incorporation of isotopically labeled acetate into fatty acids, follows. HepG2 cells were maintained in T-75 flasks containing DMEM supplemented with 2 mM 1-glutamine, penicillin G (100 units/ml), streptomycin 100 μg/ml with 10% FBS and incubated in a humidified incubator with 5% CO2 at 37° C. Cells were fed every 2-3 days. On Day 1. cells were seeded in 24 well plates at a density of 1.2×10^5 cells/ml/well with the growth medium. On Day 3 the medium was replaced with fresh medium containing 10% FBS. On Day 4 the medium was replaced with 0.5 ml of fresh medium containing test compound (in DMSO; final [DMSO] is 0.5%) and the cells were incubated at 37° C. for 1 hour. To one copy of plate, 4 ul of [2-^14C]acetate (56 mCi/mmol; 1 mCi/ml; PerkinElmer) was added and the cells were incubated at 37° C., 5% CO2 for 5 hrs. To a second copy of plate, 4 ul of cold acetate were added and the cells were incubated at 37° C., 5% CO2 for 5 hrs. This plate was used for protein concentration measurement. Medium was removed and placed in a 15 ml centrifuge tube (BD, Falcon/352096). Cells were rinsed with 1 ml PBS, then aspirated, and the rinse and aspiration steps were repeated. 0.5 ml of 0.1N NaOH were added to each well and let sit at RT to dissolve cell monolayer. The remaining cell suspension was pooled with medium. For the protein determination plate, an aliquot was removed for protein determination (25 ul). […] 5 ml petroleum ether was added per tube, shaken vigorously, centrifuged at 1000 rpm for 5 min, and 500 uL of the petroleum ether layer was transferred to tubes for Microbeta reading, then 2 ml Aquasol-2 were added to each tube, the tubes were shaken and counted with a Microbeta Liquid Scintillation Counter (Perkin Elmer).
The remaining petroleum ether layer was discarded and the aqueous phase reserved for fatty acid extractions. […] 2 ml of Aquasol-2 was added to each vial, and the vials were shaken and counted on a scintillation counter.

C. albicans ATCC 90028 = test: Anti-Fungal Activity Assay (broth microtiter MIC); format: cell-based; details: 3 replicates, test compounds read at 48 h
Experimental: (§2) Compounds of the present invention were evaluated in an Anti-Fungal Activity Assay. An exemplary procedure for the assay, which measures the susceptibility of various Candida species to anti-fungal compounds, follows. Compounds to be tested (including fluconazole and amphotericin B) were dissolved in DMSO to obtain a solution having a concentration of 1 mg/mL. […] All species were grown from frozen stock by directly plating on to freshly prepared Sabouraud Dextrose agar (BD, Difco) and incubated overnight in ambient air at 35° C. for 24 h. A direct suspension was prepared in RPMI 1640+MOPS (Lonza, Biowhittaker) by taking individual colonies from the overnight cultures using sterile swabs soaked in sterile saline. The concentration of the suspension was determined using pre-determined standard curves. […] The original CLSI guidelines focused on reading Candida MICs after 48 h of incubation. As reading after only 24 h offers a clear advantage of patient care, QC limits are being established for all drugs at 24 h. That being said there are no known interpretive breakpoints for amphotericin B at 24 h and the current fluconazole interpretive breakpoints are based on a 48 h reading. The MIC breakpoints for the Pharmaron test compounds were recorded at 48 h, and for the soraphen the 24 h time-point was added. All MIC determinations were achieved by visually comparing the growth found in the antibiotic challenged wells to that of the growth control.

C. krusei ATCC 6258 = test: Anti-Fungal Activity Assay (broth microtiter MIC); format: cell-based; details: 3 replicates, test compounds read at 48 h
Experimental: as §2

[5] = tested on: C. parapsilosis ATCC 22019; test: Anti-Fungal Activity Assay (broth microtiter MIC); format: cell-based; details: 3 replicates, test compounds read at 48 h
Experimental: as §2

Candida species = test: Anti-Fungal Activity Assay, summary over Candida species; format: cell-based; details: summary of Table 3
Experimental: as §2

[6] = tested on: LNCaP (prostate cancer cell line) cells; test: Cancer Cell Viability Assay; format: cell-based, human; details: concentration of 5 uM, FIG. 5
Experimental: Compounds of the invention were also assayed in a Cancer Cell Viability Assay as described by Beckers et al. “Chemical Inhibition of Acetyl-CoA Carboxylase Induces Growth Arrest and Cytotoxicity Selectively in Cancer Cells” Cancer Res. (2007) 67, 8180-8187. An exemplary procedure for the assay, which measures the percentage of cancer cells surviving following administration of inhibitor compounds, follows.
LNCaP (prostate cancer cell line) cells plated at 4×10^5 per 6 cm dish were incubated at 37° C., and the following day they were treated with increasing concentrations of inhibitor compounds and incubated. Viable cells and the percentage of dead cells was counted and calculated every day for 5 days from day 0, using trypan blue staining.

fatty acid synthesis = test: In Vivo Fatty Acid Synthesis Study ([C14]-acetate incorporated into rat liver tissue); details: FIG. 16
Experimental: Compounds of the present invention were also assayed in an In Vivo Fatty Acid Synthesis Study as described by Harwood et al. “Isozyme-nonselective N-Substituted Bipiperidylcarboxamide Acetyl-CoA Carboxylase Inhibitors Reduce Tissue Malonyl-CoA Concentrations, Inhibit Fatty Acid Synthesis, and Increase Fatty Acid Oxidation in Cultured Cells and in Experimental Animals” Journal of Biological Chemistry (2008) 278, 37099-37111. An exemplary procedure for the assay, which measures the amount of radioactive [C^14]-acetate incorporated into rat liver tissue, follows.
Animals given food ad water ad libitum were treated orally at a volume of 1.0 mL/200 g body weight (rat) with either an aqueous solution containing 0.5% methylcellulose (vehicle), or an aqueous solution containing 0.5% methylcellulose plus test compound. One to four hours after compound administration, animals received an intraperitoneal injection of 0.5 mL of [C^14]-acetate (64 uCi/mL; […]). […] The pooled organic fractions were transferred to liquid scintillation vials, dried under nitrogen, dissolved in 7 mL of Aquasol liquid scintillation fluid, and assessed for radioactivity using a Beckman 6500 liquid scintillation counter. Results were recorded as disintigrations per minute (DPM) per milligram of tissue.

ACC = test: IC50 quoted for Soraphen A in the thermal shift text; format: biochemical
[7] = Candida albicans, ATCC90028, 48 h, read-out: MIC
[8] = Pichia kudriavzevii, ATCC6258, 48 h, read-out: MIC
[9] = Lodderomyces parapsilosis, ATCC22019, 48 h, read-out: MIC

| IC50 (ACC1 [3]) | IC50 (ACC2 [4]) | IC50 (HepG2 cells) | MIC (C. albicans ATCC 90028) | MIC (C. albicans ATCC 90028; [7]) | MIC (C. krusei ATCC 6258) | MIC (C. krusei ATCC 6258; [8]) | MIC [5] | MIC [5, 9] | anti-fungal activity MICs (Candida species) | SMILES | IC50 (ACC1 [1]) | IC50 (ACC2 [2]) | thermal melting point change compared with Soraphen A (target protein (ACC)) | cell population growth [6] | fatty acid (FA) synthesis in rats (fatty acid synthesis) | IC50 (ACC) |
| --- | --- | --- | --- | --- | --- | --- | --- | --- | --- | --- | --- | --- | --- | --- | --- | --- |
| < 0.1 µM | < 0.1 µM | < 0.1 µM | 2 mg/L (≈ 3.8 µM) | 2 mg/L (≈ 3.8 µM) | 2 mg/L (≈ 3.8 µM) | 2 mg/L (≈ 3.8 µM) | 8 mg/L (≈ 15.2 µM) | 8 mg/L (≈ 15.2 µM) | low ug/mL range | COc1ccccc1[C@H](Cn1c(=O)n(C(C)(C)C(N)=O)c(=O)c2c(C)c(-c3ncco3)sc21)OC(C)C [I-174, 2-[1-[(2R)-2-(2-methoxyphenyl)-2-(propan-2-yloxy)ethyl]-5-methyl-6-(1,3-oxazol-2-yl)-2,4-dioxo-1H,2H,3H,4H-thieno[2,3-d]pyrimidin-3-yl]-2-methylpropanamide] |  |  | equivalent to that of Soraphen A |  |  |  |
| < 0.1 µM | < 0.1 µM |  |  |  |  |  |  |  |  | COc1ccccc1[C@H](Cn1c(=O)n(C(C)(C)C(=O)O)c(=O)c2c(C)c(-c3ncco3)sc21)O[C@H]1CC[C@@H](O)CC1 [I-278, 2-[1-[(2R)-2-[(4-hydroxycyclohexyl)oxy]-2-(2-methoxyphenyl)ethyl]-5-methyl-6-(1,3-oxazol-2-yl)-2,4-doxo-1H,2H,3H,4H-thieno[2,3-d]pyrimidin-3-yl]-2-methylpropanoic acid] |  |  |  |  | dose-dependent decrease in FA synthesis |  |

The remaining lines, values behind:

| SMILES | IC50 (ACC1 [3]) | IC50 (ACC2 [4]) | IC50 (HepG2 cells) | MIC (C. albicans ATCC 90028) | MIC (C. albicans ATCC 90028; [7]) | MIC (C. krusei ATCC 6258) | MIC (C. krusei ATCC 6258; [8]) | MIC [5] | MIC [5, 9] | anti-fungal activity MICs (Candida species) | IC50 (ACC1 [1]) | IC50 (ACC2 [2]) | thermal melting point change compared with Soraphen A (target protein (ACC)) | cell population growth [6] | fatty acid (FA) synthesis in rats (fatty acid synthesis) | IC50 (ACC) |
| --- | --- | --- | --- | --- | --- | --- | --- | --- | --- | --- | --- | --- | --- | --- | --- | --- |
| O=C(c1c2ccccc2cc2ccccc12)N1CCC(N2CCC[C@@H](C(=O)N3CCOCC3)C2)CC1 [CP-640186] |  |  |  |  |  |  |  |  |  |  | ~0.06 µM | ~0.06 µM |  |  |  |  |
| COc1ccccc1[C@@H](Cn1c(=O)n(C(C)(C)C(=O)O)c(=O)c2c(C)c(-c3ncco3)sc21)OC(C)C [I-158, 2-[1-[(2S)-2-(2-methoxyphenyl)-2-(propan-2-yloxy)ethyl]-5-methyl-6-(1,3-oxazol-2-yl)-2,4-dioxo-1H,2H,3H,4H-thieno[2,3-d]pyrimidin-3-yl]-2-methylpropanoic acid] | < 0.1 µM | < 0.1 µM | < 0.1 µM | 2 mg/L (≈ 3.79 µM) | 2 mg/L (≈ 3.79 µM) | 2 mg/L (≈ 3.79 µM) | 2 mg/L (≈ 3.79 µM) | 8 mg/L (≈ 15.2 µM) | 8 mg/L (≈ 15.2 µM) | low ug/mL range |  |  | equivalent to that of Soraphen A | completely inhibit cell population growth |  |  |
| CO[C@H]1CCCC[C@@H](c2ccccc2)OC(=O)[C@@H](C)[C@@]2(O)O[C@H]([C@@H](C)[C@H](O)[C@H]2OC)[C@@H](C)/C=C/[C@H]1OC [Soraphen A] |  |  |  |  |  |  |  |  |  |  |  |  |  |  |  | 0.004 µM |
